Results on one compound are retold here after publication PMC7206119, “RIP1 inhibition blocks inflammatory diseases but not tumor growth or metastases” (Cell Death and Differentiation, 2019).

Holding throughout (test): biochemical
Design in all cases: DiscoverX kinase panel, active-site competition binding (KINOMEscan type), percent of control at one concentration
What all share (settings): competition binding, percent of control

Assay [1] has as its target T1, ABL1(Q252H)-phosphorylated (Homo sapiens, UniProt P00519, Q252H).
T1 construct: phosphorylated

Assay [2] deals with ACVR2B (Homo sapiens, UniProt Q13705).
For assay [3], the target named is T2, AMPK-alpha2 (Homo sapiens, UniProt P54646).
T2 construct: gene PRKAA2

Assay [4] deals with BUB1 (Homo sapiens, UniProt O43683).
Assay [5] has as its target CAMK2D (Homo sapiens, UniProt Q13557).
The target in assay [6] is CDK7 (Homo sapiens, UniProt P50613).
The target in assay [7] is EGFR(L747-T751del,Sins) (Homo sapiens, UniProt P00533, DEL747-750/T751S).
Assay [8] addresses EPHB6 (Homo sapiens, UniProt O15197).
The target of assay [9] is T3, HPK1 (Homo sapiens, UniProt Q92918).
T3 construct: gene MAP4K1

Assay [10] concerns the target MAST1 (Homo sapiens, UniProt Q9Y2H9).
Assay [11] concerns the target MERTK (Homo sapiens, UniProt Q12866).
In assay [12] the target is MET(Y1235D) (Homo sapiens, UniProt P08581, Y1235D).
For assay [13], the target named is T4, MST1 (Homo sapiens, UniProt Q13043).
T4 construct: gene STK4

Assay [14] concerns the target PAK1 (Homo sapiens, UniProt Q13153).
Assay [15] has as its target PIP5K1C (Homo sapiens, UniProt O60331).
Assay [16] concerns the target ROCK2 (Homo sapiens, UniProt O75116).
Assay [17] concerns the target T5, RSK4(Kin.Dom.1-N-terminal) (Homo sapiens, UniProt Q9UK32).
T5 construct: gene RPS6KA6; Kin.Dom.1-N-terminal

The target of assay [18] is T6, S6K1 (Homo sapiens, UniProt P23443).
T6 construct: gene RPS6KB1

Assay [19] addresses SRMS (Homo sapiens, UniProt Q9H3Y6).
The target in assay [20] is TLK1 (Homo sapiens, UniProt Q9UKI8).
The target in assay [21] is ULK3 (Homo sapiens, UniProt Q6PHR2).

Structures are written as SMILES.

Sequence of EPHB6 (O15197 whole entry): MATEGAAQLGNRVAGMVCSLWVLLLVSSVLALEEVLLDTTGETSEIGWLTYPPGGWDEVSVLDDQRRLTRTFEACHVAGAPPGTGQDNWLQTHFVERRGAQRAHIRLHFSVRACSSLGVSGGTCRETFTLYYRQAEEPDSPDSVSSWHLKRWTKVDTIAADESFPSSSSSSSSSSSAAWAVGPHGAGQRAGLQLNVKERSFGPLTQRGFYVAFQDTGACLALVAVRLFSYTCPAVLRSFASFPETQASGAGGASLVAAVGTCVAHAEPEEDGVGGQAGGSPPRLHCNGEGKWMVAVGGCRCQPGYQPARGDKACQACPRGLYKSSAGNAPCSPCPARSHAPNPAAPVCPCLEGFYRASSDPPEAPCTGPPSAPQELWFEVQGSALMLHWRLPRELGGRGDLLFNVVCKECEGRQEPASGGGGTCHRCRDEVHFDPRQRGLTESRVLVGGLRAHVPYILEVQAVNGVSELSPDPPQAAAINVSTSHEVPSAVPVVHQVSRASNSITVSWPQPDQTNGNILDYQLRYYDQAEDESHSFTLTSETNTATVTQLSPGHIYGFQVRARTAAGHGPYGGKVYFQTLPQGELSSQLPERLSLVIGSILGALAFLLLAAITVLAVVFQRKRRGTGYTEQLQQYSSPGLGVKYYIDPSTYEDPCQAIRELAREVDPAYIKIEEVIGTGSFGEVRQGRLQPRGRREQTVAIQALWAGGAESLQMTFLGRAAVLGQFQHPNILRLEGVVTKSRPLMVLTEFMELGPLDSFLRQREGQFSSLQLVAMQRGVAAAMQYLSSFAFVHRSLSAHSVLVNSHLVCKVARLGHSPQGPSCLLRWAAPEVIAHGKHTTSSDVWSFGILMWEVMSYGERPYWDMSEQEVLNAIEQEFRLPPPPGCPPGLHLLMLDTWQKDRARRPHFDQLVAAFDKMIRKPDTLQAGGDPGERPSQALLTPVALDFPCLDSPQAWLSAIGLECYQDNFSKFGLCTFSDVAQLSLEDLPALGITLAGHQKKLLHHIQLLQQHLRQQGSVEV
Sequence of CAMK2D (Q13557 whole entry): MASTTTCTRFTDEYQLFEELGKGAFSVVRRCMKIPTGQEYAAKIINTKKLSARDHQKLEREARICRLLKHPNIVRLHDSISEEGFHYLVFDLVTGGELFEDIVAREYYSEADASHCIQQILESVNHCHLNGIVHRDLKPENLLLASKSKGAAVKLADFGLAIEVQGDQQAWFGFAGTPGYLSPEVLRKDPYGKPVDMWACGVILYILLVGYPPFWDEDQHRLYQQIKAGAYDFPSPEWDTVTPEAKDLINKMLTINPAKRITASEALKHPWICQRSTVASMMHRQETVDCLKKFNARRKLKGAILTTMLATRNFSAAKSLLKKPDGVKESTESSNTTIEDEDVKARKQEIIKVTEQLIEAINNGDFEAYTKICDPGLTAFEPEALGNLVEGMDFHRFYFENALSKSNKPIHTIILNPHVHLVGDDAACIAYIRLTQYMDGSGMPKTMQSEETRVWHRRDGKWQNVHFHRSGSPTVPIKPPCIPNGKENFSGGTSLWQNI
Sequence of SRMS (Q9H3Y6 whole entry): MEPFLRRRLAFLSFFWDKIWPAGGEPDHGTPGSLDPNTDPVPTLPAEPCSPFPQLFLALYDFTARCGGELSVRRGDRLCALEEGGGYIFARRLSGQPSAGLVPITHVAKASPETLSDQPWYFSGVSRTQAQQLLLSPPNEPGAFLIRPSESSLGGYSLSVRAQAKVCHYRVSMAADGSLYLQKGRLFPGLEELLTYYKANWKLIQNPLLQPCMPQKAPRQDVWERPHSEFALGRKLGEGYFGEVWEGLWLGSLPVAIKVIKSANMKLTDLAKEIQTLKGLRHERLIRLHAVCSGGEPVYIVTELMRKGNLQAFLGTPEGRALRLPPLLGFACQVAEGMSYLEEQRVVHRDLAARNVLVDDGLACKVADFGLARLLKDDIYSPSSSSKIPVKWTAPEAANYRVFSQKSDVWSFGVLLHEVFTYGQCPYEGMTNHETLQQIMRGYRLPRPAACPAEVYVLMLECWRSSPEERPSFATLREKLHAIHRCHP
T2 sequence (P54646 whole entry): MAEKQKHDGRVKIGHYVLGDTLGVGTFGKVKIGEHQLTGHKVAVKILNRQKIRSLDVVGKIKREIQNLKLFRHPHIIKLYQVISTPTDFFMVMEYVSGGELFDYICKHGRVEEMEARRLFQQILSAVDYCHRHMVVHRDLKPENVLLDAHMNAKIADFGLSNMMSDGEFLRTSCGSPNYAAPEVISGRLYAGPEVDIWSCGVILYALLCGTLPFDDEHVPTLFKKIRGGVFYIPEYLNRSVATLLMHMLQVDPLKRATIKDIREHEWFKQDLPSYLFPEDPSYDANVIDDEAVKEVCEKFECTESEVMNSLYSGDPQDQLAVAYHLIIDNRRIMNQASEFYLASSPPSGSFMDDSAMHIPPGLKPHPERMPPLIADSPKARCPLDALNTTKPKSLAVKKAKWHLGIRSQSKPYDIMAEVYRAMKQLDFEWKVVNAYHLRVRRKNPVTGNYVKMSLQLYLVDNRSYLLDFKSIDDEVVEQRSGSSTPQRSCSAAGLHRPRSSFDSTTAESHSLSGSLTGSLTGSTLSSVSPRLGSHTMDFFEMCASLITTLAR
Sequence of ULK3 (Q6PHR2 whole entry): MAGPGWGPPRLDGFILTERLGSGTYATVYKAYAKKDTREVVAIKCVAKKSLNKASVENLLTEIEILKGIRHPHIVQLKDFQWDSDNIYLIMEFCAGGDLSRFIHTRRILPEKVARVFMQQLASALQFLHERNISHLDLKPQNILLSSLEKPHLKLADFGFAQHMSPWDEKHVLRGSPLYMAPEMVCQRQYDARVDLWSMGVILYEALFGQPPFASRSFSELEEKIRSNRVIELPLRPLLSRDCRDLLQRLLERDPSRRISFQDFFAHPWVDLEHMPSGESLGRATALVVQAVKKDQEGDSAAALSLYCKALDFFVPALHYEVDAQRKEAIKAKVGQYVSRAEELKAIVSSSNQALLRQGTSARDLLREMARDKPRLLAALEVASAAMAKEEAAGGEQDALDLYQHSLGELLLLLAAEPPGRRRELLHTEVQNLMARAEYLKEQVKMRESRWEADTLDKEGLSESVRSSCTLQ
T6 sequence (P23443 whole entry): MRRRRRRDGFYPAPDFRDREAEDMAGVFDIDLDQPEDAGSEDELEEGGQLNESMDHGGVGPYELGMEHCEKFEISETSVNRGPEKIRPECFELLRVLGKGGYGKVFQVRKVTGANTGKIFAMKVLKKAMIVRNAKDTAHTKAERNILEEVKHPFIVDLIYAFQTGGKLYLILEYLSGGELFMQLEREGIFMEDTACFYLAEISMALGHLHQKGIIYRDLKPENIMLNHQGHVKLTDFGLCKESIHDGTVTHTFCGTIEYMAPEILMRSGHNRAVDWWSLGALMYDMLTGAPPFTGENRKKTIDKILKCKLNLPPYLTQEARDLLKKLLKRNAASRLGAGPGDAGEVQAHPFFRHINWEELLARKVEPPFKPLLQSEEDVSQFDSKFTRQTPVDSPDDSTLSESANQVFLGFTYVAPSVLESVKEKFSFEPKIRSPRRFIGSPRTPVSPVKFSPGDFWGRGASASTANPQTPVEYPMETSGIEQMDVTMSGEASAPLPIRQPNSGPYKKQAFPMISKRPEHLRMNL
T3 sequence (Q92918 whole entry): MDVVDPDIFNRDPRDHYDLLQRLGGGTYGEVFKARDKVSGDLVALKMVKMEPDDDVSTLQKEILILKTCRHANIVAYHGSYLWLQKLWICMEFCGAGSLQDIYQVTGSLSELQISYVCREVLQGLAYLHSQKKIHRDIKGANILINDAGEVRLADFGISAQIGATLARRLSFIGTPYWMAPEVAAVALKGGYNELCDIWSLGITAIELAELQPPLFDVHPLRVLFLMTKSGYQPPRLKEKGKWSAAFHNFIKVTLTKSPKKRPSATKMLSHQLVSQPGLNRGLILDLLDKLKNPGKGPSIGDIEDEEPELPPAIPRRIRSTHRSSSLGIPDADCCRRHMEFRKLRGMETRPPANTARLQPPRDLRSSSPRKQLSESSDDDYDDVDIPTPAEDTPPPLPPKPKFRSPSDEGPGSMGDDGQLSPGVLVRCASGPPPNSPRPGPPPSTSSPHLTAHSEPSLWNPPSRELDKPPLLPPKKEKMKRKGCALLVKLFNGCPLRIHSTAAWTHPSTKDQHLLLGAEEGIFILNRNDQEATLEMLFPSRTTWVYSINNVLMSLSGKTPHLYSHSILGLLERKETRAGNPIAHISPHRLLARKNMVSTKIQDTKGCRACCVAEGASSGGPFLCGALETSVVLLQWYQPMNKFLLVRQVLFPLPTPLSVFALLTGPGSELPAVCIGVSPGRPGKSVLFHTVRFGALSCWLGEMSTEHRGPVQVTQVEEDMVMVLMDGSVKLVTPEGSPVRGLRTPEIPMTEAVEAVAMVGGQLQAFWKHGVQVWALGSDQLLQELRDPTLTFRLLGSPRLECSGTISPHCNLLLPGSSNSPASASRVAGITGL
Sequence of CDK7 (P50613 whole entry): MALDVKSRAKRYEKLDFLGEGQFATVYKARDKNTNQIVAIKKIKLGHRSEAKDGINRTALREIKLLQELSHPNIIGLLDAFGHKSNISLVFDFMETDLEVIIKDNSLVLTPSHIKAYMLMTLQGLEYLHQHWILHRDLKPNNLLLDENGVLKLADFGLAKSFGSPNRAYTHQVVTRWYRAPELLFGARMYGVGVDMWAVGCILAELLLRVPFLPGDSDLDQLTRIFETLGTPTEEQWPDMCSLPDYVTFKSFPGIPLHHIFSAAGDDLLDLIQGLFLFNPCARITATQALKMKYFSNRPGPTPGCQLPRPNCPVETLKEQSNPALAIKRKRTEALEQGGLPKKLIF

As for `COc1cc2c(cn1)N(C)C(=O)[C@@H](NC(=O)c1nc3n(n1)[C@H](c1ccccc1)CC3)CC2` [GNE684, (S)-N-((S)-7-methoxy-1-methyl-2-oxo-2,3,4,5-tetrahydro-1H-pyrido[3,4-b]azepin-3-yl)-5-phenyl-6,7-dihydro-5H-pyrrolo[1,2-b][1,2,4]triazole-2-carboxamide], the remaining binding at 10 µM in assay [1] stood at 96%; in [2], 94%; in [3] it was 81%; in assay [4], 100%; in assay [5] it was 100%; in assay [6], 75%. The remaining binding at 10 µM was determined as 84% in assay [7]; 100% in assay [8]; 98% in [9]; 94% in [10]; 90% in assay [11]; 82% in [12]. Besides, the remaining binding at 10 µM in [13] worked out at 85%; in assay [14], 94%; in assay [15], 100%; in assay [16], 100%; in assay [17] it was 100%; in [18] it was 88%. In addition, the remaining binding at 10 µM is 100% in [19], 97% in assay [20] and 100% in assay [21].
